From US12522602B2, “Derivatives having 2,3-dihydro-1H-indene or 2,3-dihydrobenzofuran moiety or pharmaceutically acceptable salt thereof and pharmaceutical compositions comprising the same” (YUHAN CORPORATION, priority 2019, dated 2026)

What follows are molecules tested on GM1 production in Jurkat cells (assay: cells). Details: not given.
Format: cell-based

With `CC1(C)Cc2ccc(-c3cccc(OC(F)(F)F)c3)cc2C1NC(=O)O[C@@H]1CN2CCC1CC2` (stereo partly drawn) [Example 56, (S)-quinuclidin-3-yl (2,2-dimethyl-6-(3-(trifluoromethoxy)phenyl)-2,3-dihydro-1H-inden-1-yl)carbamate] the IC50 was 210 nM.

Same assay, conditions: Homo sapiens, Jurkat, 72 h

First: CC1(C)Cc2ccc(-c3ccc(F)cc3)cc2C1NC(=O)O[C@@H]1CN2CCC1CC2 (stereo partly drawn) [Example 49, (S)-quinuclidin-3-yl (6-(4-fluorophenyl)-2,2-dimethyl-2,3-dihydro-1H-inden-1-yl)carbamate]
Second: CC1(C)Cc2cc(-c3ccc(F)cc3)ccc2C1NC(=O)O[C@@H]1CN2CCC1CC2 (stereo partly drawn) [Example 73, (S)-quinuclidin-3-yl (5-(4-fluorophenyl)-2,2-dimethyl-2,3-dihydro-1H-inden-1-yl)carbamate]
The IC50 of the first is 2.4-fold higher: 61.4 nM for the first, 26 nM for the second.

Compared with `CC1(C)Cc2ccc(-c3ccc(Cl)cc3)cc2C1NC(=O)O[C@@H]1CN2CCC1CC2` (stereo partly drawn) [Example 50, (S)-quinuclidin-3-yl (6-(4-chlorophenyl)-2,2-dimethyl-2,3-dihydro-1H-inden-1-yl)carbamate], `CC1(C)Cc2cc(-c3ccc(Cl)cc3)ccc2C1NC(=O)O[C@@H]1CN2CCC1CC2` (stereo partly drawn) [Example 74, (S)-quinuclidin-3-yl (5-(4-chlorophenyl)-2,2-dimethyl-2,3-dihydro-1H-inden-1-yl)carbamate] is 4-fold lower in IC50: 52.3 nM for the first, 13 nM for the second.

First: CC1(C)Cc2ccc(-c3ccc(C(F)(F)F)cc3)cc2C1NC(=O)O[C@@H]1CN2CCC1CC2 (stereo partly drawn) [Example 51, (S)-quinuclidin-3-yl (2,2-dimethyl-6-(4-(trifluoromethyl)phenyl)-2,3-dihydro-1H-inden-1-yl)carbamate]
Second: CC1(C)Cc2cc(-c3ccc(C(F)(F)F)cc3)ccc2C1NC(=O)O[C@@H]1CN2CCC1CC2 (stereo partly drawn) [Example 75, (S)-quinuclidin-3-yl (2,2-dimethyl-5-(4-(trifluoromethyl)phenyl)-2,3-dihydro-1H-inden-1-yl)carbamate]
The IC50 of the first is 3.6-fold higher: 30.2 nM for the first, 8.3 nM for the second. The second is the more potent here.

First: CC1(C)Cc2ccc(-c3ccc(OC(F)(F)F)cc3)cc2C1NC(=O)O[C@@H]1CN2CCC1CC2 (stereo partly drawn) [Example 52, (S)-quinuclidin-3-yl (2,2-dimethyl-6-(4-(trifluoromethoxy)phenyl)-2,3-dihydro-1H-inden-1-yl)carbamate]
Second: CC1(C)Cc2ccc(-c3ccc(OC(F)F)cc3)cc2C1NC(=O)O[C@@H]1CN2CCC1CC2 (stereo partly drawn) [Example 61, (S)-quinuclidin-3-yl (6-(4-(difluoromethoxy)phenyl)-2,2-dimethyl-2,3-dihydro-1H-inden-1-yl)carbamate]
The IC50 of the first is 2.1-fold higher: 82.3 nM for the first, 39.6 nM for the second.

Going from `CC1(C)Cc2ccc(-c3cccc(F)c3)cc2C1NC(=O)O[C@@H]1CN2CCC1CC2` (stereo partly drawn) [Example 53, (S)-quinuclidin-3-yl (6-(3-fluorophenyl)-2,2-dimethyl-2,3-dihydro-1H-inden-1-yl)carbamate] to `CC1(C)Cc2ccc(-c3cccc(Cl)c3)cc2C1NC(=O)O[C@@H]1CN2CCC1CC2` (stereo partly drawn) [Example 54, (S)-quinuclidin-3-yl (6-(3-chlorophenyl)-2,2-dimethyl-2,3-dihydro-1H-inden-1-yl)carbamate], the IC50 rises from 80 nM to 161 nM (2-fold).

`CC1(C)Cc2ccc(-c3cccc(C(F)(F)F)c3)cc2C1NC(=O)O[C@@H]1CN2CCC1CC2` (stereo partly drawn) [Example 55, (S)-quinuclidin-3-yl (2,2-dimethyl-6-(3-(trifluoromethyl)phenyl)-2,3-dihydro-1H-inden-1-yl)carbamate] and `CC1(C)Cc2ccc(-c3ccccc3C(F)(F)F)cc2C1NC(=O)O[C@@H]1CN2CCC1CC2` (stereo partly drawn) [Example 59, (S)-quinuclidin-3-yl (2,2-dimethyl-6-(2-(trifluoromethyl)phenyl)-2,3-dihydro-1H-inden-1-yl)carbamate] are within 1.5-fold of each other in IC50: 173 nM for the first, 164 nM for the second.

First: CC1(C)Cc2ccc(-c3ccccc3F)cc2C1NC(=O)O[C@@H]1CN2CCC1CC2 (stereo partly drawn) [Example 57, (S)-quinuclidin-3-yl (6-(2-fluorophenyl)-2,2-dimethyl-2,3-dihydro-1H-inden-1-yl)carbamate]
Second: CC1(C)Cc2ccc(-c3ccccc3Cl)cc2C1NC(=O)O[C@@H]1CN2CCC1CC2 (stereo partly drawn) [Example 58, (S)-quinuclidin-3-yl (6-(2-chlorophenyl)-2,2-dimethyl-2,3-dihydro-1H-inden-1-yl)carbamate]
The IC50 of the first is 1.8-fold lower: 49.9 nM for the first, 87.8 nM for the second.

Compared with `Cc1ccc(-c2ccc3c(c2)C(NC(=O)O[C@@H]2CN4CCC2CC4)C(C)(C)C3)cc1` (stereo partly drawn) [Example 60, (S)-quinuclidin-3-yl (2,2-dimethyl-6-(p-tolyl)-2,3-dihydro-1H-inden-1-yl)carbamate], `COCCOc1ccc(-c2ccc3c(c2)C(NC(=O)O[C@@H]2CN4CCC2CC4)C(C)(C)C3)cc1` (stereo partly drawn) [Example 72, (S)-quinuclidin-3-yl (6-(4-(2-methoxyethoxy)phenyl)-2,2-dimethyl-2,3-dihydro-1H-inden-1-yl)carbamate] is 1.9-fold lower in IC50: 112 nM for the first, 58.2 nM for the second.

Going from `CC1(C)Cc2ccc(-c3ccc(F)c(F)c3)cc2C1NC(=O)O[C@@H]1CN2CCC1CC2` (stereo partly drawn) [Example 62, (S)-quinuclidin-3-yl (6-(3,4-difluorophenyl)-2,2-dimethyl-2,3-dihydro-1H-inden-1-yl)carbamate] to `CC1(C)Cc2ccc(-c3cc(F)ccc3F)cc2C1NC(=O)O[C@@H]1CN2CCC1CC2` (stereo partly drawn) [Example 65, (S)-quinuclidin-3-yl (6-(2,5-difluorophenyl)-2,2-dimethyl-2,3-dihydro-1H-inden-1-yl)carbamate], the IC50 falls from 103 nM to 56.2 nM (1.8-fold).

Going from `CC1(C)Cc2ccc(-c3ccc(F)cc3F)cc2C1NC(=O)O[C@@H]1CN2CCC1CC2` (stereo partly drawn) [Example 63, (S)-quinuclidin-3-yl (6-(2,4-difluorophenyl)-2,2-dimethyl-2,3-dihydro-1H-inden-1-yl)carbamate] to `CC1(C)Cc2ccc(-c3cccc(F)c3F)cc2C1NC(=O)O[C@@H]1CN2CCC1CC2` (stereo partly drawn) [Example 64, (S)-quinuclidin-3-yl (6-(2,3-difluorophenyl)-2,2-dimethyl-2,3-dihydro-1H-inden-1-yl)carbamate], the IC50 falls from 117 nM to 74.7 nM (1.6-fold). The second is the more potent here.

First: CC1(C)Cc2ccc(-c3cc(F)cc(F)c3)cc2C1NC(=O)O[C@@H]1CN2CCC1CC2 (stereo partly drawn) [Example 66, (S)-quinuclidin-3-yl (6-(3,5-difluorophenyl)-2,2-dimethyl-2,3-dihydro-1H-inden-1-yl)carbamate]
Second: CC1(C)Cc2ccc(-c3cc(Cl)cc(Cl)c3)cc2C1NC(=O)O[C@@H]1CN2CCC1CC2 (stereo partly drawn) [Example 69, (S)-quinuclidin-3-yl (6-(3,5-dichlorophenyl)-2,2-dimethyl-2,3-dihydro-1H-inden-1-yl)carbamate]
The IC50 of the first is 3.1-fold lower: 128 nM for the first, 400 nM for the second. The first is the more potent here.

Going from `CC1(C)Cc2ccc(-c3ccc(F)c(F)c3F)cc2C1NC(=O)O[C@@H]1CN2CCC1CC2` (stereo partly drawn) [Example 67, (S)-quinuclidin-3-yl (2,2-dimethyl-6-(2,3,4-trifluorophenyl)-2,3-dihydro-1H-inden-1-yl)carbamate] to `CC1(C)Cc2ccc(-c3cc(Cl)ccc3Cl)cc2C1NC(=O)O[C@@H]1CN2CCC1CC2` (stereo partly drawn) [Example 71, (S)-quinuclidin-3-yl (6-(2,5-dichlorophenyl)-2,2-dimethyl-2,3-dihydro-1H-inden-1-yl)carbamate], the IC50 falls from 144 nM to 64.3 nM (2.2-fold).

Work on `CC1(C)Cc2ccc(-c3ccc(Cl)c(Cl)c3)cc2C1NC(=O)O[C@@H]1CN2CCC1CC2` (stereo partly drawn) [Example 70, (S)-quinuclidin-3-yl (6-(3,4-dichlorophenyl)-2,2-dimethyl-2,3-dihydro-1H-inden-1-yl)carbamate] yielded an IC50 of 70.9 nM.
